Test results as given in patent publication US7939672B2, “Phenylacetate derivatives or pharmaceutically acceptable salts thereof, preparation method thereof and composition for prevention or treatment of diseases induced by activation of T-type calcium ion channel containing the same as an active ingredient” (Korea Institute of Science and Technology, priority 2008, dated 2011).
Like-named read-outs stand apart in the source and are kept apart here.

Assays:
[1] = molecular target: T1, α1G T-type calcium ion channels (Homo sapiens, UniProt O43497); test: Ion current inhibition on T-type calcium ion channels using a patch clamp (HEK293 cells); assay type: cell-based
T1 construct: host or cells: HEK293
Experimental: Measurement of Ion Current Inhibition on T-Type Calcium Ion Channels Using a Patch Clamp
(1) Cell Culture and Preparation
20 hours prior to the use of the medium for expression of hERG channels, the Tet-expression system was activated by treating the medium with 1 μg/ml doxycycline.
The cells in the experiment was passaged once in three days, and collected when the cells were grown to 50˜80% confluency in the Petri dish. […] Trypsin was removed using a centrifuge, an extracellular solution was added, and cells floating automatically by a Patchliner were used at room temperature.
(2) Experimental Solution
As a solution composition for measurement of activation of T-type calcium ion channels, 140 mM NaCl, 2 mM CaCl2, 4 mM KCl, 1 mM MgCl2, 5 mM D-glucose, and 10 mM HEPES (pH 7.4) were used for an extracellular solution, and 50 mM KCl, 10 mM NaCl, 60 mM KF, 2 mM MgCl2, 10 mM HEPES, and 20 mM EGTA (pH 7.2) were used for an intracellular solution. To maintain the pre-cellular state, a seal reinforced solution was added. When T-type calcium ion channel expression cells were used, an extracellular solution supplemented with 10 mM Ba^2+ was added and records about the result were made.
(3) Electro-Physiological Technique and Data Processing
The current was measured through an EPC10 amplifier (HEKA, Germany) by a precellular patch clamp technique using NPC©-16 Patchliner (Nanion Technologies, Germany). Cell suspensions and various experimental solutions were automatically aliquotted into chips (NPC-16 Chip, Nanion Technologies, Germany) by experimental devices. A cell membrane potential was fixed at −100 mV for measurement of activation of T-type calcium ion channels. When a low polarization was performed at −20 mV for 300 ms, the inward current was measured at ten-second intervals.
The IC50 graphs and values were obtained from the automatic calculation of inhibition rates of the peak current using an experimental data analysis program IGOR Pro (WaveMetrics, USA).

[2] = test system: spinal nerve ligation animal model; details: Barton et al. 2005; cited from earlier work
[3] = test system: T-type calcium ion channel; details: T-type versus L-type; cited from earlier work
[4] = patch clamp, HEK293 α1G cells, 10 nM to 100 μM, read-out: IC50
[5] = read-out: % inhibition rate (10 μM), 10 μM, peak inward current, HEK293 cells expressing α1G T-type channel
[6] = patch clamp, HEK293 α1G cells, unit nM, read-out: IC50 (μM), cells marked

T1 sequence (O43497 whole entry): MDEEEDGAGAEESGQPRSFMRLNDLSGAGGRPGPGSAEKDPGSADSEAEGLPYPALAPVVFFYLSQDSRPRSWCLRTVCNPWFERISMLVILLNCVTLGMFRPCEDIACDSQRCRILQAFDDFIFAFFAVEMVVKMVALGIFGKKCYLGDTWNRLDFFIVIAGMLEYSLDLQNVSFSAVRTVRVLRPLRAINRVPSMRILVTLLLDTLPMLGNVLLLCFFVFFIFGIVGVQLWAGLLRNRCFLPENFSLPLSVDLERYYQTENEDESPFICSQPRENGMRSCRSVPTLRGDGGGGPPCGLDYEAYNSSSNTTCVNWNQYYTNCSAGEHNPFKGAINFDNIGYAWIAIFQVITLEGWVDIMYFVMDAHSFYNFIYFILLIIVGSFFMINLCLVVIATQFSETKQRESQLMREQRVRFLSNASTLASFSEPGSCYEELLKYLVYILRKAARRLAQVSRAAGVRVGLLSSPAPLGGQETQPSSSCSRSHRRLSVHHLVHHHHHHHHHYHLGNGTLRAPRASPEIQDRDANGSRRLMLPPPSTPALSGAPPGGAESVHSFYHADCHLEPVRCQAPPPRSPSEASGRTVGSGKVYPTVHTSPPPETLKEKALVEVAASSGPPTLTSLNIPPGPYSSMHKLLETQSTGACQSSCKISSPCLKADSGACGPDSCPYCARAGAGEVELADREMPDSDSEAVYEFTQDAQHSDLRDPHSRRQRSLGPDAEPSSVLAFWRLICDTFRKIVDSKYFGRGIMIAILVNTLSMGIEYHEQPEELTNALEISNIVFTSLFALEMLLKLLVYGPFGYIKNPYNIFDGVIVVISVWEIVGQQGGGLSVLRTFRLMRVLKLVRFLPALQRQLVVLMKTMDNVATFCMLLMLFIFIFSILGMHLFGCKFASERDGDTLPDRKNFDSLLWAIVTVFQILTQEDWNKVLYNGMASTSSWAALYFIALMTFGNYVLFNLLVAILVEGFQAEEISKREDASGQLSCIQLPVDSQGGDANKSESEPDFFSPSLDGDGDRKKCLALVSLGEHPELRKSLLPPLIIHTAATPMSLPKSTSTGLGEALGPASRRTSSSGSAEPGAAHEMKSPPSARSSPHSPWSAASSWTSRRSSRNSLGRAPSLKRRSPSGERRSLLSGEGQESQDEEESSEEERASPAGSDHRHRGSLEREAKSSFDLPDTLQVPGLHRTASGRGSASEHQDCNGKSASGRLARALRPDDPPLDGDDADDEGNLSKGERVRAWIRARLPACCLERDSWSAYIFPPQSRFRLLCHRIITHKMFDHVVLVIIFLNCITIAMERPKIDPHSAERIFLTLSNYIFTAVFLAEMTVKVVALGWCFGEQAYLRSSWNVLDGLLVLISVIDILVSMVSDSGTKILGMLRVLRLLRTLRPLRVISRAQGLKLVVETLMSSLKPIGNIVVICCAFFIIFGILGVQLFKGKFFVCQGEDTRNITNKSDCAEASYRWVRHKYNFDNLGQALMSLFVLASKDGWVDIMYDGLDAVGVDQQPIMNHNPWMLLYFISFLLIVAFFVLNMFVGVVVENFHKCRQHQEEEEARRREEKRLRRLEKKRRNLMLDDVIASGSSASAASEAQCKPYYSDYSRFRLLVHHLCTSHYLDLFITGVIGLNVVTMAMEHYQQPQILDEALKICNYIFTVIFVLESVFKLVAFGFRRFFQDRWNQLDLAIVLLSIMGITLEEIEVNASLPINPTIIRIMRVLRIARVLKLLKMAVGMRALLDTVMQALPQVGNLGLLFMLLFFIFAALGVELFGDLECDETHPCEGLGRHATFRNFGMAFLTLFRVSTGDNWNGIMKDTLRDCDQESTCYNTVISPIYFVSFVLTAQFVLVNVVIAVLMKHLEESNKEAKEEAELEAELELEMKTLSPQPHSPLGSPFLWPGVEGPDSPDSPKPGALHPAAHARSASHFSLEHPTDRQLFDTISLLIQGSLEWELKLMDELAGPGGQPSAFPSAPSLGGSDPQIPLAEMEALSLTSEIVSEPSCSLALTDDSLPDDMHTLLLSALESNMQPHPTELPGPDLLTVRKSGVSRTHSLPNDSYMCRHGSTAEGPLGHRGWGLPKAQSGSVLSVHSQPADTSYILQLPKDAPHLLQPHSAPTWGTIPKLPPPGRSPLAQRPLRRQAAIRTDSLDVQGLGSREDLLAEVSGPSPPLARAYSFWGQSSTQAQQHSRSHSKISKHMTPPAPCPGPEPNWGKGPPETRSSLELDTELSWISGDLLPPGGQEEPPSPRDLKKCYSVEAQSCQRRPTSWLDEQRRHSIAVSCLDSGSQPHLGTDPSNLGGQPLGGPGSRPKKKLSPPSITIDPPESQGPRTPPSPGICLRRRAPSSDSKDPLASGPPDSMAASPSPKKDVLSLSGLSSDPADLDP

Row | Compound | IC50 [1, 4] [nM] | inhibition at 10 µM [1, 5] [%] | other results
1 | CCOC(=O)C(CCCN(C)CCCc1nc2ccccc2[nH]1)(c1ccccc1)C(C)C (centres unmarked) [Embodiment 10] | 250 ± 5 | 98.3 ± 0.9 | 
2 | COC(=O)C(CCCN(C)CCCc1nc2cc(OC)ccc2[nH]1)(c1ccc(OC)cc1)C(C)C (centres unmarked) [Embodiment 5] | 880 ± 70 | 91.7 ± 1.9 | 
3 | CCOC(=O)C(CCCN(C)CCCc1nc2cc(C)c(C)cc2[nH]1)(c1ccccc1)C(C)C (centres unmarked) [Embodiment 11] | 100 ± 10 | 91.4 ± 0.4 | 
4 | COC(=O)C(CCCN(C)CCCc1nc2cc(C)c(C)cc2[nH]1)(c1ccc(Br)cc1)C(C)C (centres unmarked) [Embodiment 12] |  | 94.2 ± 0.4 | IC50 [1, 6]: 53 ± 4.87 nM
5 | COC(=O)C(CCCN1CCN(Cc2ccc(C(F)(F)F)cc2)CC1)(c1ccc(Br)cc1)C(C)C (centres unmarked) [Embodiment 34, methyl 2-(4-bromophenyl)-2-isopropyl-5-(4-(4-(trifluoromethyl)benzyl)piperazine-1-yl)pentanoate] |  |  | IC50 [1]: 280 ± 20 nM; inhibition at 10 µM ([1]; HEK293, read-out: % inhibition rate (10 μM)): 93 ± 1.5%
6 | COC(=O)C(CCCN(C)CCCc1nc2ccccc2[nH]1)(c1ccc(Br)cc1)C(C)C (centres unmarked) [Embodiment 1, 5-{[3-(1H-benzimidazole-2-yl)propyl]methylamino}-2-(4-bromophenyl)-2-isopropylpentanoic acid methyl ester] |  | 96.9 ± 0.59 | IC50 [1, 6]: 8.17 ± 0.48 nM
7 | COC(=O)C(CCCN(C)CCCc1nc2ccccc2[nH]1)(c1ccc(OC)cc1)C(C)C (centres unmarked) [Embodiment 4] | 190 ± 1 | 93.5 ± 3.2 | 
8 | CCC1(C)CC(=O)NC1=O (centres unmarked) [Ethosuximide] |  |  | reversal of mechanic and thermal induction [2]: dosage-dependent reversed mechanic and thermal induction
9 | CCOC(=O)C(CCCN1CCN(Cc2ccc(OC)cc2)CC1)(c1ccccc1)C(C)C (centres unmarked) [Embodiment 23, ethyl 2-isopropyl-5-(4-(4-methoxybenzyl)piperazine-1-yl)-2-phenylpentanoate] | 340 ± 20 | 96.3 ± 1.7 | 
10 | COC(=O)C(CCCN(C)CCCc1nc2cc(OC)ccc2[nH]1)(c1ccc(Br)cc1)C(C)C (centres unmarked) [Embodiment 13] | 250 ± 10 | 94.5 ± 1.2 | 
11 | CCOC(=O)C(CCCN1CCN(Cc2ccc(F)cc2)CC1)(c1ccccc1)C(C)C (centres unmarked) [Embodiment 26, ethyl 5-(4-(4-fluorobenzyl)piperazine-1-yl)-2-isopropyl-2-phenylpentanoate] | 260 ± 30 | 94 ± 2.5 | 

Now from value to compound, other results behind:

Row | IC50 [1, 4] [nM] | inhibition at 10 µM [1, 5] [%] | Compound | other results
12 | 980 ± 110 | 89.3 ± 1.6 | COC(=O)C(CCCN1CCN(Cc2cccc(F)c2)CC1)(c1ccc(Br)cc1)C(C)C (centres unmarked) [Embodiment 31, methyl 2-(4-bromophenyl)-5-(4-(3-fluorobenzyl)piperazine-1-yl)-2-isopropylpentanoate] | 
13 | 320 ± 10 | 95.1 ± 1.9 | COC(=O)C(CCCN1CCN(Cc2ccc(OC)c(OC)c2OC)CC1)(c1ccc(Br)cc1)C(C)C (centres unmarked) [Embodiment 39, methyl 2-(4-bromophenyl)-2-isopropyl-5-(4-(2,3,4-trimethoxybenzyl)piperazine-1-yl)pentanoate] | 
14 | 480 ± 80 | 96 ± 1.7 | COC(=O)C(CCCN1CCN(Cc2ccc(OC)cc2)CC1)(c1ccc(Br)cc1)C(C)C (centres unmarked) [Embodiment 38, methyl 2-(4-bromophenyl)-2-isopropyl-5-(4-(4-methoxybenzyl)piperazine-1-yl)pentanoate] | 
15 | 390 ± 30 | 94.9 ± 1.5 | COC(=O)C(CCCN1CCN(Cc2cccc(C)c2)CC1)(c1ccc(Br)cc1)C(C)C (centres unmarked) [Embodiment 40, methyl 2-(4-bromophenyl)-2-isopropyl-5-(4-(3-methylbenzyl)piperazine-1-yl)pentanoate] | 
16 |  | 94.1 ± 1.5 | COC(=O)C(CCCN1CCN(c2ccccc2OC)CC1)(c1ccc(Br)cc1)C(C)C (centres unmarked) [Embodiment 35, methyl 2-(4-bromophenyl)-2-isopropyl-5-(4-(2-methoxyphenyl)piperazine-1-yl)pentanoate] | IC50 [1, 6]: 95 ± 14.8 nM
17 | 740 ± 20 | 90.4 ± 3.2 | COC(=O)C(CCCN1CCN(Cc2ccccc2F)CC1)(c1ccc(Br)cc1)C(C)C (centres unmarked) [Embodiment 30, methyl 2-(4-bromophenyl)-5-(4-(2-fluorobenzyl)piperazine-1-yl)-2-isopropylpentanoate] | 
18 | 1110 ± 50 | 96.5 ± 1.7 | COC(=O)C(CCCN1CCN(Cc2ccc(F)cc2)CC1)(c1ccc(Br)cc1)C(C)C (centres unmarked) [Embodiment 32, methyl 2-(4-bromophenyl)-5-(4-(4-fluorobenzyl)piperazine-1-yl)-2-isopropylpentanoate] | 
19 |  | 95.9 ± 1.7 | COCC(=O)O[C@]1(CCN(C)CCCc2nc3ccccc3[nH]2)CCc2cc(F)ccc2[C@@H]1C(C)C [mibefradil] | reversal of mechanic and thermal induction [2]: dosage-dependent reversed mechanic and thermal induction; more inhibitory activity to the T-type than to the L-type [3]: 10 to 30 times
